This note sets out measurements from ChEMBL document CHEMBL1133833, “Dopaminergic 7-aminotetrahydroindolizines: ex-chiral pool synthesis and preferential D3 receptor binding” (Bioorg Med Chem Lett, 2001).

One test addresses D(1A) dopamine receptor (Bos taurus, UniProt Q95136). The test is described as follows: In vitro ability to displace [3H]SCH-23390 from bovine Dopamine receptor D1 in striatal membranes.
Test [1] has as its target T1, D(2) dopamine receptor (Bos taurus, UniProt P20288). The test can be described thus: In vitro ability to displace [3H]pramipexole from high affinity binding sites of bovine D2 receptors in striatal membranes.
The target of test [2] is T1, D(2) dopamine receptor. The test is described as follows: In vitro ability to displace [3H]-spiperone from bovine cloned Dopamine receptor D2 stably expressed in CHO cells. Type of test: cell-based.
Another test deals with D(3) dopamine receptor (Homo sapiens, UniProt P35462).
D(3) dopamine receptor, sequence (P35462 whole entry): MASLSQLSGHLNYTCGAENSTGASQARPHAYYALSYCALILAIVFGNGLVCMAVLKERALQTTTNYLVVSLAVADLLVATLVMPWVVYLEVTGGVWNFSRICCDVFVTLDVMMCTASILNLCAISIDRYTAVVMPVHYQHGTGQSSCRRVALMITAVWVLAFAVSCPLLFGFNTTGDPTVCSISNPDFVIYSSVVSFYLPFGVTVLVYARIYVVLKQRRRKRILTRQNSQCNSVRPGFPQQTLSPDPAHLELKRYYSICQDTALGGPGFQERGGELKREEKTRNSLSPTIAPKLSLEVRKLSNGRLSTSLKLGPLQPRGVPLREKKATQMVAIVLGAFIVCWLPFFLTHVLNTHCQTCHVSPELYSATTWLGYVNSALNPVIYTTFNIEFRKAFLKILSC

pKi: −log10 of the molar value.

D(1A) dopamine receptor, sequence (Q95136 whole entry): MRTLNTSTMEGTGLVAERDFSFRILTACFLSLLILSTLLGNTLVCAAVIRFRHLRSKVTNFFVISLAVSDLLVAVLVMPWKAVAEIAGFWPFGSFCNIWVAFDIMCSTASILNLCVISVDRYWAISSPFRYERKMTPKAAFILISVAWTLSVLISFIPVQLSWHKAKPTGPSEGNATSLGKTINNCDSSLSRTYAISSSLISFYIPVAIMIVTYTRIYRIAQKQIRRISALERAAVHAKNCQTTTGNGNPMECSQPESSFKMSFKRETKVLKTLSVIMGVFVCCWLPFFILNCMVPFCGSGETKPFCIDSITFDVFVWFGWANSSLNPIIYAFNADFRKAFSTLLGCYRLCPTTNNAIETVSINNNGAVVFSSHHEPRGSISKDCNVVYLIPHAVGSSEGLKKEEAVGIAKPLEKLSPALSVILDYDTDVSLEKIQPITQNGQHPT
T1 sequence (P20288 whole entry): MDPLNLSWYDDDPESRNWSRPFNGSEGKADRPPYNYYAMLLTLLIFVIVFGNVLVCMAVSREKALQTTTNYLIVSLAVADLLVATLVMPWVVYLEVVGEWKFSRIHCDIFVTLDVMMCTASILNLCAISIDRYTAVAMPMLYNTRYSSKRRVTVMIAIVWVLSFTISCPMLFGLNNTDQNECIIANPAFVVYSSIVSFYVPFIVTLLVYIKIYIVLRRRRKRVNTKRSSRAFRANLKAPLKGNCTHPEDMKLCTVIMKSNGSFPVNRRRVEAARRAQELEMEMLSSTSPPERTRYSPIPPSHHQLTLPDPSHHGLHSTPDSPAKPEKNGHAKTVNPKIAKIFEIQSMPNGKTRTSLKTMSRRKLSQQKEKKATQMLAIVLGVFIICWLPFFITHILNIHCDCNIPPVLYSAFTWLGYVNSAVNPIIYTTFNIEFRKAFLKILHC
Description for D(3) dopamine receptor: In vitro ability to displace [3H]spiperone from human cloned Dopamine receptor D3 stably expressed in CHO cells.

By pKi is commonly meant the Ki on a negative log10 scale, so that one unit is a factor of ten. A lower pKi goes with a large Ki. Take `CCCN(CCC)[C@H]1CCn2c(C=O)ccc2C1`: the pKi on D(1A) dopamine receptor was 4.59; on D(2) dopamine receptor [1], 7.68.

Regarding `CCCN(CCC)[C@@H]1CCn2cccc2C1`, the pKi on D(2) dopamine receptor [2] is 5.39; on D(3) dopamine receptor, 6.25; at D(1A) dopamine receptor, below 4.00; on D(2) dopamine receptor [1], 6.82.

On to `CCCN(CCC)[C@@H]1CCn2cc(C)cc2C1`, for which the pKi at D(2) dopamine receptor [2] was 4.77; on D(3) dopamine receptor, 5.89; at D(1A) dopamine receptor, 4.08; at D(2) dopamine receptor [1], 6.10.

With `CCCN(CCC)[C@@H]1CCn2c(C)ccc2C1`, the pKi on D(2) dopamine receptor [2] was 5.89; at D(3) dopamine receptor, 6.23; at D(1A) dopamine receptor, 4.92; on D(2) dopamine receptor [1] it was 6.37.

As for `CCCN(CCC)[C@H]1CCn2c(CO)ccc2C1`, the pKi at D(2) dopamine receptor [2] is 5.26; at D(3) dopamine receptor, 6.38; on D(1A) dopamine receptor, 4.89; on D(2) dopamine receptor [1] it was 7.06.

Turning to `CCCN(CCC)[C@@H]1CCn2ccc(CO)c2C1`, the pKi is 5.21 on D(2) dopamine receptor [2], 6.48 on D(3) dopamine receptor, 4.00 on D(1A) dopamine receptor and 6.70 on D(2) dopamine receptor [1].

In the case of `CCCN(CCC)[C@H]1CCn2c(C)ccc2C1`, the negative-log Ki (pKi) is 5.42 at D(2) dopamine receptor [2], 6.37 at D(3) dopamine receptor, 4.54 at D(1A) dopamine receptor and 6.82 at D(2) dopamine receptor [1].

For the compound `CCCN(CCC)[C@H]1CCn2ccc(CO)c2C1`, the pKi on D(2) dopamine receptor [2] was 4.26; at D(3) dopamine receptor, 5.01; on D(1A) dopamine receptor, below 4.00; on D(2) dopamine receptor [1], 5.10.

With `CCCN(CCC)[C@H]1CCn2ccc(C)c2C1`, the pKi is 5.40 at D(2) dopamine receptor [2], 6.12 on D(3) dopamine receptor, 4.17 on D(1A) dopamine receptor and 6.42 on D(2) dopamine receptor [1].

Regarding `CCCN(CCC)[C@@H]1CCn2ccc(C=O)c2C1`, the pKi on D(2) dopamine receptor [2] is 4.92; on D(3) dopamine receptor, 6.29; at D(1A) dopamine receptor, 4.10; on D(2) dopamine receptor [1], 6.42.

For the compound `CCCN(CCC)[C@H]1CCn2cc(CO)cc2C1`, the pKi on D(2) dopamine receptor [2] is below 4.00; at D(3) dopamine receptor, 5.07; on D(1A) dopamine receptor, below 4.00; at D(2) dopamine receptor [1], 4.89.

Take `CCCN(CCC)[C@@H]1CCn2c(C=O)ccc2C1`: the pKi at D(2) dopamine receptor [2] was 4.68; on D(3) dopamine receptor it was 5.74; at D(1A) dopamine receptor it was 4.33; on D(2) dopamine receptor [1], 5.77.

`CCCN(CCC)[C@@H]1CCn2ccc(C)c2C1`: the pKi at D(2) dopamine receptor [2] is 4.92; at D(3) dopamine receptor, 5.68; on D(1A) dopamine receptor, 4.15; on D(2) dopamine receptor [1], 6.00.

On to `CCCN(CCC)[C@@H]1CCn2cc(CO)cc2C1`, for which the pKi on D(2) dopamine receptor [2] is 4.47; on D(3) dopamine receptor, 5.85; at D(1A) dopamine receptor it was below 4.00; at D(2) dopamine receptor [1], 6.00.

Regarding `CCCN(CCC)[C@H]1CCn2cc(C)cc2C1`, the pKi at D(2) dopamine receptor [2] is 5.02; on D(3) dopamine receptor it was 6.11; on D(1A) dopamine receptor, 4.36; at D(2) dopamine receptor [1], 6.19.

Regarding `CCCN(CCC)[C@H]1CCn2ccc(C=O)c2C1`, the pKi is 5.23 on D(2) dopamine receptor [2], 5.44 on D(3) dopamine receptor, below 4.00 on D(1A) dopamine receptor and 5.80 on D(2) dopamine receptor [1].

`CCCN(CCC)[C@@H]1CCn2c(CO)ccc2C1`: the pKi at D(2) dopamine receptor [2] was 4.43; on D(3) dopamine receptor, 5.13; at D(1A) dopamine receptor it was below 4.00; on D(2) dopamine receptor [1], 5.33.
